According to patent US20210244704A1, “Cabazitaxel in mCRPC Patients Previously Treated with Docetaxel and Who Failed a Prior androgen signaling targeted inhibitor Agent” (SANOFI MATURE IP, priority 2019, published 2021):
Marks after values point to notes of the source that are not given here.

What was measured:
[1] = test system: patients with mCRPC who progressed during or after docetaxel; conditions: every 3 weeks with prednisone 10 mg daily; cabazitaxel 25 mg/m^2, mitoxantrone 12 mg/m^2; cited from earlier work
[2] = test system: metastatic castration-resistant prostate cancer (mCRPC) patients previously treated with docetaxel and who failed a prior androgen signaling targeted inhibitor; assay: Randomized open-label clinical study, cabazitaxel vs abiraterone acetate or enzalutamide: imaging-based PFS, OS, PFS, PSA and tumor response; assay type: in vivo, human; conditions: for Deaths: at cut-off date; for rPFS, HR: cabazitaxel vs abiraterone or enzalutamide
From the text: Imaging-based progression-free survival (rPFS): defined as the time from randomization until the occurrence of one of the following events: objective tumor progression (Response Evaluation Criteria in Solid Tumors, version 1.1), progression of bone lesions (Prostate Cancer Working Group 2) or death due to any cause.
Overall survival (OS): defined as the time from the date of randomization to the date of death due to any cause.
Progression-free survival (PFS) defined as the time from randomization until the occurrence of objective tumor progression (using Response Evaluation Criteria in Solid Tumors, version 1.1), or progression of bone lesions (using Prostate Cancer Working Group 2 criteria), or symptomatic progression (defined as the development of urinary or bowel symptoms related to prostate cancer or requiring a change of anticancer therapy), or pain progression, or death due to any cause.
PSA response: defined as a decline of serum PSA from baseline of ≥50% with confirmation from a second PSA value measured at least 3 weeks apart. Best PSA response was defined using the Prostate Cancer Working Group criteria 2 definition.
Tumor response (TR): was measured using Response Evaluation Criteria in Solid Tumors, version 1.1 in patients with measurable disease.
A clinical study was performed wherein patients received cabazitaxel versus an Androgen Receptor (AR)-targeted agent (abiraterone acetate or enzalutamide) in metastatic castration-resistant prostate cancer (mCRPC) patients previously treated with docetaxel and who failed a prior androgen signaling pathway inhibitor within 12 months.
For patients in Arm A, cabazitaxel 25 mg/m^2 was administered intravenously over 1 hour every 3 weeks along with oral prednisone 10 mg given daily. Primary prophylactic granulocyte-colony stimulating factor (G-CSF) was required at each cycle for all patients in the cabazitaxel arm
For patients in Arm B, abiraterone acetate was administered orally at 1000 mg once daily along with oral prednisone 5 mg given twice daily or enzalutamide was administered orally at 160 mg once daily continuously. Abiraterone acetate was administered to patients who had received enzalutamide prior to study entry. Enzalutamide was administered to patients who received prior abiraterone acetate.
Each patient was treated until imaging-based disease progression, unacceptable toxicity, or patient's refusal of further study treatment. All patients were followed when on study treatment and after completion of study treatment during follow-up period until death, the study cut-off date, or withdrawal of patients' consent whichever came first.
Eligible patients were randomized to receive either cabazitaxel or an AR pathway inhibitor (abiraterone acetate or enzalutamide; dependent on the use of a previous androgen signaling targeted inhibitor) in a 1:1 ratio. Stratification criteria were Eastern Cooperative Oncology Group performance status, a 5-point scale where higher numbers indicate greater disability (0-1 vs. 2), and time to disease progression (≤6 months vs. >6-12 months) and timing (before vs. after docetaxel) with previous alternative AR pathway inhibitors.
Cabazitaxel 25 mg/m^2, was administered intravenously over 1 hour every 3 weeks with oral prednisone 10 mg daily. Premedication included an antihistamine, glucocorticoid (dexamethasone 8 mg or equivalent), and histamine 2 receptor antagonist. Antiemetic prophylaxis was administered at physician's discretion. Primary prophylactic granulocyte-colony stimulating factor was required during each cycle of cabazitaxel. Patients received either abiraterone acetate (1000 mg orally once daily and oral prednisone 5 mg twice daily) or enzalutamide (160 mg orally once daily) continuously. A treatment cycle was 3 weeks in both arms. Abiraterone acetate was given to patients who previously received enzalutamide before study entry. Enzalutamide was given to patients who previously received abiraterone acetate. […]

pain in mCRPC patients = assay: Same clinical study: pain response and pain progression (BPI-SF); assay type: in vivo, human; conditions: for Pain progression, HR: cabazitaxel vs abiraterone or enzalutamide
Description: Pain response (PR): was measured using the Brief Pain Inventory-Short Form for pain intensity score and defined as a decrease by >30% from baseline in the Brief Pain Inventory-Short Form pain intensity item scores observed at two consecutive evaluations weeks apart without an increase in analgesic usage score.
Pain response was defined as a decrease≥30% from baseline in BPI-SF pain intensity score with no increased analgesic use. HRQL was assessed using the Functional Assessment of Cancer Therapy-Prostate (FACT-P) questionnaire. Pain intensity was defined using item 3 of the validated Brief Pain Inventory-Short Form (BPI-SF), which rates pain at its worst in the last 24 hours on a scale of 0 (no pain) to 10 (worst imaginable pain). Analgesic consumption was reported by local investigators and coded by the World Health Organization's analgesic ladder (0=no analgesic; 1=non-opioid analgesics; 2=opioid analgesics for moderate pain; 3=opioids for severe pain). […] A clinically meaningful improvement or deterioration of total FACT-P score was defined as a difference of ±10 points from baseline. Clinically meaningful changes in HRQL and pain response were confirmed at two consecutive evaluations≥3 weeks apart during the on-treatment period. Survival curves were generated by Kaplan-Meier estimates.
Efficacy analysis used all randomized patients. Stratified log-rank tests were used to analyze time-to-event data. The primary analysis compared radiographic progression-free survival between the two treatment groups using a stratified log-rank test. Survival curves were generated using Kaplan-Meier estimates. Hazard ratios and associated 95% confidence intervals [CI] were estimated using a stratified Cox proportional hazards model. Stratified Cochran-Mantel-Haenszel chi-square tests were used to analyze categorical data. Descriptive statistics were used to summarize patient characteristics. The safety population (randomized patients who received at least one dose of study treatment) was used for all safety analyses.

[3] = cabazitaxel vs androgen signaling targeted inhibitor
[4] = evaluable patients, listed as cabazitaxel

CO[C@H]1C(=O)[C@]2(C)[C@@H](OC)C[C@H]3OC[C@@]3(OC(C)=O)[C@H]2[C@H](OC(=O)c2ccccc2)[C@]2(O)C[C@H](OC(=O)[C@H](O)[C@@H](NC(=O)OC(C)(C)C)c3ccccc3)C(C)=C1C2(C)C [Cabazitaxel, 4α-acetoxy-2α-benzoyloxy-5β,20-epoxy-1p-hydroxy-7β,10β-dimethoxy-9-oxo-11-taxen-13α-yl (2R,3S)-3-tert-butoxycarbonylamino-2-hydroxy-3-phenylpropionate]
Median overall survival, TROPIC trial [1]: 15.1 months
Deaths [2]: 54.3%
Deaths ([2]; number): 70
Radiographic progression-free survival, hazard ratio, post hoc ([2]; cabazitaxel vs abiraterone acetate): 0.44
Overall survival, HR in multivariate analysis ([2]; cabazitaxel vs abiraterone/enzalutamide, in presence of low hemoglobin, high baseline NLR, high PSA): 0.63
Imaging-based progression-free survival, hazard ratio [2, 3]: 0.54
Overall survival, hazard ratio [2, 3]: 0.64
Progression-free survival, hazard ratio [2, 3]: 0.52
Radiographic progression-free survival, hazard ratio, post hoc ([2]; cabazitaxel vs enzalutamide): 0.57
Reduction of the risk of death from any cause ([2]; compared with abiraterone acetate or enzalutamide, all patients): 36%
Confirmed PSA reduction ≥50% from baseline ([2]; evaluable patients): (35.7) %
Confirmed PSA reduction ≥50% from baseline [2, 4]: 35.7%
Radiographic progression-free survival, treatment effect hazard ratio, multivariate ([2]; fixed model MV-1): 0.54
Overall survival, median ([2]; from randomization): 13.6 months
Median OS from time of 1st LET ([2]; human, in vivo): 36.4 months
Median OS from time of 2nd LET ([2]; human, in vivo): 24.2 months
Median OS from time of 3rd LET ([2]; human, in vivo): 13.6 months
Median OS from time of mCRPC diagnosis ([2]; human, in vivo): 40.9 months
Median OS from time of metastatic disease diagnosis ([2]; human, in vivo): 54.7 months
Progression-free survival, median ([2]; human, in vivo): 4.4 months
Treatment discontinuation for disease progression ([2]; human, in vivo): 43.7%
Imaging-based progression-free survival, median ([2]; intention-to-treat population): 8.0 months
Overall response rate ([2]; measurable disease): 36.5%
Tumor response, complete ([2]; measurable disease): 0 n
Tumor response, progressive disease ([2]; measurable disease): 15 n
Confirmed PSA reduction ≥50% from baseline ([2]; number of patients, evaluable 115 and 111): 41
rPFS, HR ([2]; patients 70 years or older): 0.58
rPFS, HR ([2]; patients aged <70 years): 0.47
Radiographic progression-free survival, treatment effect hazard ratio, multivariate ([2]; stepwise model MV-2): 0.50
Radiographic progression-free survival, treatment effect hazard ratio, multivariate ([2]; stepwise model MV-3): 0.52
Reduction in the risk of death ([2]; vs abiraterone or enzalutamide, both in patients ≥70 and <70 years): 34%
Pain (BPI-SF), Kaplan-Meier probability of no deterioration at 3 months (pain in mCRPC patients; 3 months): 87.8
Probability of not having pain progression after 12 months (pain in mCRPC patients; 12 months): 66.2%
Pain progression, HR (pain in mCRPC patients): 0.55*
Pain progression, HR (pain in mCRPC patients; listed as cabazitaxel): 0.55
Patients with a confirmed pain response (pain in mCRPC patients; evaluable 111 and 109): 50 n
Patients with a confirmed pain response (pain in mCRPC patients; [4]): 45.0%
Median time to pain progression (BPI-SF) (pain in mCRPC patients; human, in vivo): NE (NE-NE)
Pain (BPI-SF) deterioration events (pain in mCRPC patients; human, in vivo): 22.5%
Pain (BPI-SF) deterioration events, n/nT (pain in mCRPC patients; human, in vivo): 25/111
Median time to pain progression (BPI-SF) (pain in mCRPC patients; human, in vivo, listed as cabazitaxel): not reached
